The test system of experiment [1] is Human mast cells (CHMC). The experiment can be described thus: Mast cell activation induced by FcγR cross-linking: LTC4 release (ELISA). The experiment is classed as cell-based. The settings on record: anti-IgG 1 μg/ml. On the procedure:
(§1) Human mast cells were cultured and differentiated from CD38-negative progenitor cell as described in U.S. Patent Publication No. 2005-234049, incorporated herein by reference. […] A80-105A3) final concentration 1 μg/ml, was added to the test wells. MT (25 μl) was added to control wells. After a 60-minute incubation at 37° C., cells and cell debris were pelleted by centrifugation at 1000 rpm for 10 min and tryptase and leukotriene C4 levels were measured. Leukotriene C4 (LTC4) levels were quantified using an ELISA kit on appropriately diluted supernatant samples following the supplier's instructions (Cayman Chemical Co., Cat No. 520211). Inhibition of release and/or synthesis of lipid mediators was assessed by measuring the release of LTC4 and inhibition of release and/or synthesis of cytokines was monitored by quantifying TNFα, IL-8, GM-CSF, IL-10 and IL-13. Cytokine (TNFα, IL-8, GM-CSF, IL-10, IL-13) production was measured 6-8 hrs post-IgG crosslinking. Leukotriene and cytokine levels were quantified using the following commercial ELISA kits: LTC4 (Cayman Chemical #520211), TNFα (Biosource #KHC3011), GM-CSF (Biosource #KHC0901), IL-10 (Biosource #KHC0122), and IL-13 (Biosource #KHC0132).

Experiment [2] deals with Human mast cells (CHMC). The experiment can be described thus: Mast cell activation induced by FcγR cross-linking: cytokine production (ELISA). The experiment is classed as cell-based. Conditions: 6-8 hrs post-IgG crosslinking. On the procedure:
as §1, with “measured.” for “measured. Leukotriene C4 (LTC4) levels were quantified using an ELISA kit on appropriately diluted supernatant samples following the supplier's instructions (Cayman Chemical Co., Cat No. 520211).”

Experiment [3] has as its system Platelets in PRP. Kind of experiment: CD62P surface expression by stimulated platelets (flow cytometry). Conditions: 15 min at 37° C. The experiment is classed as cell-based, Human. On the procedure:
Human peripheral blood, from healthy volunteers who had not taken any medication for at least 7 days, was drawn into Vacutainer-ACD tubes (Acid citrate dextrose (ACD) Solution Tubes, VWR Cat. No. VT4606). Platelet-rich plasma (PRP) and platelet-poor plasma (PPP) were prepared by differential centrifugation (200 g and >2500 g, respectively, 20 min, RT). Platelets in PRP were incubated for 10 min at 37° C. with test article-DMSO solutions that had been previously diluted in MT buffer (137 mM NaCl, 2.7 mM KCl, 1.8 mM CaCl2, 1.0 mM MgCl2, 5.6 mM glucose, 20 mM Hepes, 0.1% BSA; pH 7.4). The test articles included dimethyl Sulfoxide (DMSO) (Sigma-Aldrich, Cat No. D2650), wortmannin Penicillium funiculosum (Sigma-Aldrich, Cat No. W1628), and 6-(5-fluoro-2-(3,4,5-trimethoxyphenylamino)pyrimidin-4-ylamino)-2,2-dimethyl-2H-pyrido[3,2-b][1,4]oxazin-3(4H)-one (compound 1).
Cells were stimulated with collagen (Chronolog Corp. Cat. No. 385) at 20 μg/mL, adenosine 5′-diphosphate (ADP) (Sigma-Aldrich Cat. No. A2754) at 33 μM, or phorbol 12-Myristate 13-Acetate (PMA) (Sigma-Aldrich Cat. No. P8139) at 33 ng/mL, for 15 min at 37° C., then incubated with staining antibody (anti-CD62P PE) at RT in the dark for 20 min, and fixed with paraformaldehyde (Cytofix fixation buffer) in the dark for 30 min at RT. Finally, cells were washed with PBS containing 2% fetal bovine serum and stored at 4° C. in the dark prior to flow cytometry. Measurements were performed using a FACScalibur flow cytometer (BD Biosciences, San Jose, Calif., USA). CD62P expression was expressed as geometric mean fluorescence on the vertical axis.

The subject of experiment [4] is Human mast cells (CHMC). Kind of experiment: Mast cell activation induced by FcγR cross-linking: degranulation (tryptase). The experiment is classed as cell-based. Conditions: anti-IgG 1 μg/ml, 60-minute incubation. On the procedure:
Human mast cells were cultured and differentiated from CD38-negative progenitor cell as described in U.S. Patent Publication No. 2005-234049, incorporated herein by reference. For example, 65 μl of various concentrations of 6-(5-fluoro-2-(3,4,5-trimethoxyphenylamino) pyrimidin-4-ylamino)-2,2-dimethyl-2H-pyrido[3,2-b][1,4]oxazin-3(4H)-one (compound 1), prepared in MT (137 mM NaCl, 2.7 mM KCl, 1.8 mM CaCl2, 1.0 mM MgCl2, 5.6 mM Glucose, 20 mM Hepes (pH 7.4), 0.1% Bovine Serum Albumin, (Sigma A4503)) containing 2% MeOH and 1% DMSO, or control buffer were added to duplicate 96-well V-bottom plates. Pelleted and resuspended (in warm MT) CHMC cells (65 μl) were added to each 96-well plate, mixed and incubated for 1 hr at 37° C. […] After a 60-minute incubation at 37° C., cells and cell debris were pelleted by centrifugation at 1000 rpm for 10 min and tryptase and leukotriene C4 levels were measured.
To measure tryptase levels, 25 μl of supernatant from each well was transferred to a fresh 96-well black bottom plate, to which 100 μl of fresh tryptase substrate solution [(Z-Ala-Lys-Arg-AMC2TFA; Enzyme Systems Products, #AMC-246)] […] After 30 min incubation at room temperature, the optical density of the plates is measured at 355 nm/460 nm on a spectrophotometric plate reader. […]

As to `COc1cc(Nc2ncc(F)c(Nc3ccc4c(n3)NC(=O)C(C)(C)O4)n2)cc(OC)c1OC` [Compound 1, 6-(5-fluoro-2-(3,4,5-trimethoxyphenylamino)pyrimidin-4-ylamino)-2,2-dimethyl-2H-pyrido[3,2-b][1,4]oxazin-3(4H)-one], the EC50 in experiment [1] (Homo sapiens, Mast cell) amounted to 0.036 µM; in experiment [1] (listed as lot B), 0.047 µM; in experiment [2] (listed as lot B, read-out: EC50 GMCSF) it was 0.067 µM; in experiment [2] (listed as lot B, read-out: EC50 IL-8), 0.062 µM; in experiment [2] (listed as lot B, read-out: EC50 IL-10), 0.148 µM; in experiment [2] (listed as lot B, read-out: EC50 IL-13) it was 0.148 µM. The EC50 came out at 0.12 µM in experiment [2] (listed as lot B, read-out: EC50 TNFα); 0.046 µM in experiment [2] (Homo sapiens, Mast cell, read-out: EC50 GMCSF); 0.045 µM in experiment [2] (Homo sapiens, Mast cell, read-out: EC50 IL-8); 0.125 µM in experiment [2] (Homo sapiens, Mast cell, read-out: EC50 IL-10); 0.09 µM in experiment [2] (Homo sapiens, Mast cell, read-out: EC50 IL-13); 0.053 µM in experiment [4] (Homo sapiens, Mast cell, 1 h). In experiment [4] (listed as lot B), this compound displayed an EC50 of 0.076 µM. The “CD62P surface upregulation in platelets induced by ADP” value in experiment [3] (ADP 33 μM) is on record as “did not inhibit”. The “CD62P surface upregulation in platelets induced by PMA” value in experiment [3] (PMA 33 ng/mL) was “did not inhibit”. Moreover, the “collagen receptor mediated platelet activation (CD62P surface expression)” value in experiment [3] (collagen 20 μg/mL) is reported as “inhibited”.
